Patent publication US11224609B2, “Mithramycin derivatives having increased selectivity and anti-cancer activity” (University of Kentucky Research Foundation, priority 2017, dated 2022)

Assays:
[1] = system: TC-32 (Ewing sarcoma, EWS-FLI1 Type 1) cell line; details: for TC-32 Ewing sarcoma EWS-FLI1 Type 1 GI50: 72 h growth inhibition, TC-32 cells; for GI50 ratio PC-3:TC-32: selectivity, GI50 in PC-3 over GI50 in TC-32
[2] = system: TC-71 Ewing sarcoma cells (EWS-FLI1 Type 1); details: 72 h growth inhibition
[3] = system: ES-2 Ewing sarcoma cells (EWS-FLI1 Type 3); test: 72 h GI50 assay in ES-2; details: read-out: ES-2 EWS-FLI1 Type 3 GI50; 72 h growth inhibition
HeLa cells = test: 72 h GI50 assay in HeLa; details: read-out: HeLa GI50; 72 h growth inhibition
[4] = system: A-673 Ewing sarcoma cells (EWS-FLI1 Type 1); test: 72 h GI50 assay in A-673; details: read-out: A-673 EWS-FLI1 Type 1 GI50; 72 h growth inhibition
HCT 116 cells = test: 72 h GI50 assay in HCT 116; details: read-out: HCT 116 GI50; 72 h growth inhibition
DMS 114 cells = test: 72 h GI50 assay in DMS 114; details: read-out: DMS 114 GI50; 72 h growth inhibition
[5] = system: Ewing sarcoma cell lines (TC-32, 5838, RD-ES, TC-71, A-673, ES-2, ES-7, ES-8); test: Median GI50 in panel of Ewing sarcoma cell lines; details: for Ratio of Median GI50 non-Ewing sarcoma:Ewing sarcoma (Selectivity Index): median GI50 non-Ewing panel over Ewing panel; for GI50: read-out: Median GI50 in Ewing sarcoma cell lines, median over 8 Ewing sarcoma cell lines, 72 h; for Selectivity Index ratio Analogues:MTM (1): selectivity index relative to MTM (1)

Compound	TC-32 Ewing sarcoma EWS-FLI1 Type 1 GI50 [1]	GI50 ratio PC-3:TC-32 [1]	TC-71 EWS-FLI1 Type 1 GI50 [2]	GI50 [3]	GI50 (HeLa cells)	GI50 [4]	GI50 (HCT 116 cells)	GI50 (DMS 114 cells)	Ratio of Median GI50 non-Ewing sarcoma:Ewing sarcoma (Selectivity Index) [5]	GI50 [5]	Selectivity Index ratio Analogues:MTM (1) [5]
COC(=O)C(Cc1c[nH]c2ccccc12)NC(=O)C(Cc1ccccc1)NC(=O)C(OC)C1Cc2cc3cc(OC4CC(OC5CC(O)C(O)C(C)O5)C(O)C(C)O4)c(C)c(O)c3c(O)c2C(=O)C1OC1CC(OC2CC(OC3CC(C)(O)C(O)C(C)O3)C(O)C(C)O2)C(O)C(C)O1 (stereo not shown) [Analogue 60, MTMSA-Phe-Trp]	47 nM	24.0	44 nM	78 nM	557 nM	168 nM	449 nM	1140 nM	19.1	52 nM	12.7
COC(=O)C(Cc1c[nH]c2ccccc12)NC(=O)C(Cc1c[nH]c2ccccc12)NC(=O)C(OC)C1Cc2cc3cc(OC4CC(OC5CC(O)C(O)C(C)O5)C(O)C(C)O4)c(C)c(O)c3c(O)c2C(=O)C1OC1CC(OC2CC(OC3CC(C)(O)C(O)C(C)O3)C(O)C(C)O2)C(O)C(C)O1 (stereo not shown) [Analogue 61, MTMSA-Trp-Trp]	41 nM	13.9	35 nM	123 nM	951 nM	364 nM	198 nM	1120 nM	15.6	55 nM	10.4
